Assay results from US20220298138A1, “ENZYME INHIBITORS” (KALVISTA PHARMACEUTICALS LIMITED, priority 2019, published 2022).

What was measured:
Human Factor XIIa = target: T1, Human Factor XIIa (Homo sapiens, UniProt P00748); assay: Factor XIIa inhibitory activity in vitro (fluorogenic substrate H-DPro-Phe-Arg-AFC); assay type: biochemical; details: 25° C., class symbols, read-out: Human FXIIa IC50
T1 construct: purchased Enzyme Research Laboratories
T1 sequence (P00748 373-615 limits assumed): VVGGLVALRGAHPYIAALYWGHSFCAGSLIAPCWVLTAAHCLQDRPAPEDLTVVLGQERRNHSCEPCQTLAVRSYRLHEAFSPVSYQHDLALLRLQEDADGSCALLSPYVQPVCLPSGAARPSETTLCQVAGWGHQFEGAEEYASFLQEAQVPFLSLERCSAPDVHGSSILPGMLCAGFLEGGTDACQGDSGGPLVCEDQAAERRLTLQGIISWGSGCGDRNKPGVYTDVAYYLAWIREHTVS
Procedure, shortened: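 Enzyme incubated at 25° C with fluorogenic substrate H-DPro-Phe-Arg-AFC and a range of compound concentrations. Residual activity taken as initial reaction rate from […], giving IC50.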

Human FXIa = target: T2, Human FXIa (Homo sapiens, UniProt P03951); assay: FXIa inhibitory activity in vitro (fluorogenic substrate Z-Gly-Pro-Arg-AFC), selectivity; assay type: biochemical; details: 25° C.
T2 construct: Human FXIa (Enzyme Research Laboratories) was incubated; purchased Enzyme Research Laboratories
Experimental: Determination of the % Inhibition for FXIa
Human FXIa (Enzyme Research Laboratories) was incubated at 25° C. with the fluorogenic substrate Z-Gly-Pro-Arg-AFC and various concentrations of the test compound. Residual enzyme activity (initial rate of reaction) was determined by measuring the change in fluorescence at 410 nm and the IC50 value for the test compound was determined.

[1] = numeric bound printed instead of category

T2 sequence (P03951 388-625 limits assumed): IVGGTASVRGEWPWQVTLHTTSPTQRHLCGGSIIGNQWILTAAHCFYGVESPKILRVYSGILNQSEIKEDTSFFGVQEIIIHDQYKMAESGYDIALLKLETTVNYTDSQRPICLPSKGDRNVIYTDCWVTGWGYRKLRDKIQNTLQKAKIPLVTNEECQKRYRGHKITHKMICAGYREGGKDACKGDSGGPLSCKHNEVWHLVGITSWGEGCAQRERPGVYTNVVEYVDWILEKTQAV
T2 sequence (P03951 19-387 partner limits assumed): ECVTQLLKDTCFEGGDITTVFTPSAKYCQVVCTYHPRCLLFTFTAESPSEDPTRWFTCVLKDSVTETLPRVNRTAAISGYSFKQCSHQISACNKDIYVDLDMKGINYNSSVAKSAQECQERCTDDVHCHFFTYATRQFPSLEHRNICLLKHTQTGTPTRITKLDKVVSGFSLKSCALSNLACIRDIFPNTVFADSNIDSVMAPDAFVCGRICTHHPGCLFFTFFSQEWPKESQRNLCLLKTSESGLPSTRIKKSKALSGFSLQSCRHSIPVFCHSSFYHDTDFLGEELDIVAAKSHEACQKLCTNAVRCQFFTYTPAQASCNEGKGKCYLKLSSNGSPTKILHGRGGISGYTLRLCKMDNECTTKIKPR

Compound | IC50 (Human Factor XIIa) [µM] | IC50 (Human FXIa; category scale) [µM] | IC50 (Human FXIa; [1]) [µM]
CC(C)N[C@H](Cc1c[nH]c2ccccc12)C(=O)N1CC[C@H]1C(=O)NCc1ccc2[nH]cc(Cl)c2c1 [Example 10.18] | 10 to 40 | 10 to 40 | 
CC(C)N[C@H](CCCCN1CCCCC1)C(=O)N1C[C@@H](c2ccc(F)c(F)c2)[C@H]1C(=O)NCc1ccc2[nH]cc(Cl)c2c1 [Example 10.07] | 0.28 to 1 | > 40 | 
Cc1c(CNC(=O)[C@H](C)NC(=O)[C@H](N)CCc2ccccc2)ccc2c(N)nccc12 [Example 9.06] | 0.1 to 0.279 | 10 to 40 | 
C[C@H](NC(=O)[C@H](N)CCc1ccccc1)C(=O)NCc1cnc2[nH]cc(Cl)c2c1 [Example 9.01] | 0.28 to 1 | 10 to 40 | 
COc1cc2c(N)nccc2cc1CNC(=O)[C@H](C)NC(=O)[C@H](N)CCc1ccccc1 [Example 6.22] | 10 to 40 | 3 to 10 | 
CC(C)c1cc(C(=O)N[C@@H](Cc2ccc(F)c(F)c2)C(=O)NCc2ccc3c(N)nccc3c2)cnn1 [Example 0.97] | 1 to 3 | > 40 | 
CC(C)N[C@H](CCc1ccccc1)C(=O)N[C@@H](C)C(=O)NCc1cc2c(N)nccc2s1 [Example 9.27, (2R)—N-[(1S)-1-[({4-Aminothieno[3,2-c]pyridin-2-yl}methyl)carbamoyl]ethyl]-2-(isopropylamino)-4-phenylbutanamide] | 0.03 to 0.1 | > 40 | 
C[C@H](NC(=O)[C@H](N)CCc1ccccc1)C(=O)NCc1ccc2c(N)nccc2c1 [Example 6.09] | 0.1 to 0.279 | 10 to 40 | 
N[C@H](CCCCN1CCOCC1)C(=O)N1CC[C@H]1C(=O)NCc1cnc2[nH]cc(Cl)c2c1 [Example 10.03] | 0.28 to 1 | > 40 | 
CC(C)c1cc(C(=O)N[C@@H](Cc2ccc(F)c(F)c2)C(=O)NCc2ccc3c(N)nccc3c2)nc2ncnn12 [Example 0.64, (S)—N-(1-(((1-Aminoisoquinolin-6-yl)methyl)amino)-3-(3,4-difluorophenyl)-1-oxopropan-2-yl)-7-isopropyl-[1,2,4]triazolo[1,5-a]pyrimidine-5-carboxamide] | 0.28 to 1 | > 40 | 
CC(C)n1ccc(C(=O)N[C@@H](Cc2ccc(F)c(F)c2)C(=O)NCc2ccc3c(N)nccc3c2)cc1=O [Example 0.96] | 3 to 10 | > 40 | 
CC(C)c1cncc(C(=O)N[C@@H](Cc2ccc(F)c(F)c2)C(=O)NCc2ccc3c(N)nccc3c2)n1 [Example 0.98] | 10 to 40 | > 40 | 
C[C@H](NC(=O)[C@H](N)COCc1ccccc1)C(=O)NCc1ccc2c(N)nccc2c1 [Example 6.16] | 10 to 40 | 10 to 40 | 
C[C@H](NC(=O)[C@@H](CCc1ccccc1)NC1CCCCC1)C(=O)NCc1ccc2c(N)nccc2c1 [Example 6.19] | 0.03 to 0.1 | 0.3 to 1 | 
CC(C)n1cc(C(=O)N[C@@H](Cc2ccc(F)c(F)c2)C(=O)NCc2ccc3c(N)nccc3c2)ccc1=O [Example 0.94] | 1 to 3 | > 40 | 
C[C@H](NC(=O)[C@@H](N)CCc1ccccn1)C(=O)NCc1ccc2c(N)nccc2c1 [Example 6.12] | 10 to 40 | > 40 | 

Next, values leading:

IC50 (Human Factor XIIa) [µM] | IC50 (Human FXIa; category scale) [µM] | IC50 (Human FXIa; [1]) [µM] | Compound
10 to 40 | > 40 |  | Nc1nccc2cc(CNC(=O)CNC(=O)C(CCc3ccccc3)N3CCNCC3)ccc12 (stereo not drawn) [Example 18.109]
10 to 40 | > 40 |  | C[C@@H]1CCC[C@H](C)N1CC(=O)N1CCC(C(=O)NCc2ccc3c(N)nccc3c2)C1 (stereo partly drawn) [Example 32.10]
3 to 10 | > 40 |  | CC(C)N[C@H](CCCCN1CCCCC1)C(=O)N[C@@H](Cc1ccc(-c2ccccc2)cc1)C(=O)NCc1ccc2c(N)nccc2c1 [Example 12.10]
< 0.03 | > 40 |  | CC(C)N[C@H](CCCCN1CCCCC1)C(=O)N[C@@H](Cc1ccc(F)c(F)c1)C(=O)NCc1ccc2c(N)nccc2c1 [Example 12.03]
0.28 to 1 | 10 to 40 |  | CC(C)N[C@H](CCCN1CCCCC1)C(=O)N[C@@H](Cc1ccc(F)c(F)c1)C(=O)NCc1ccc2c(N)nccc2c1 [Example 12.04]
< 0.03 | 10 to 40 |  | CC(C)N[C@H](CCCCN1CCCCC1)C(=O)N[C@@H](Cc1ccc(F)c(F)c1)C(=O)NCc1ccc2[nH]cc(Cl)c2c1 [Example 27.03]
10 to 40 | > 40 |  | Nc1nccc2cc(CNC(=O)CNC(=O)c3ccc(-c4ccncc4)cc3)ccc12 [Example 18.108]
0.28 to 1 | 10 to 40 |  | CC(C)N[C@H](CCCCN1CCCCC1)C(=O)N[C@@H](C)C(=O)NCc1ccc2c(N)nccc2c1 [Example 12.02]
0.28 to 1 | > 40 |  | CC(C)N[C@H](CCc1ccccc1)C(=O)N1CCC[C@H]1C(=O)NCc1cnc2[nH]cc(Cl)c2c1 [Example 27.01]
3 to 10 | 10 to 40 |  | CNC(C)(C)C(=O)N1C[C@H](c2ccccc2)C[C@H]1C(=O)NCc1ccc2c(N)nccc2c1 [Example 43.07]
1 to 3 |  | > 10 | N=C(N)c1ccc(CNC(=O)[C@H](Cc2cccc3ccccc23)NC(=O)c2ccccn2)cc1 [Example 71.02]
3 to 10 | 1 to 3 |  | Nc1nccc2cc(CNC(=O)C3CC4CCC3N(C(=O)[C@H](N)CCc3ccccc3)C4)ccc12 (stereo partly drawn) [Example 17.06]
0.28 to 1 | 10 to 40 |  | C[C@@H]1CCC[C@H](C)N1CC(=O)N1C[C@H](c2ccccc2)C[C@H]1C(=O)NCc1ccc2c(N)nccc2c1 [Example 43.02]
0.28 to 1 | 10 to 40 |  | Nc1nccc2cc(CNC(=O)[C@@H]3CCN3C(=O)[C@H](N)CCc3ccccc3)ccc12 [Example 17.05]
0.28 to 1 | > 40 |  | CC(C)N[C@H](CCc1ccccc1)C(=O)N1CC[C@H]1C(=O)NCc1cnc2[nH]cc(Cl)c2c1 [Example 27.08]
3 to 10 | 3 to 10 |  | C[C@H](NC(=O)[C@@H]1C=C(c2ccccc2)CN1)C(=O)NCc1ccc2c(N)nccc2c1 [Example 45.02]
10 to 40 | 10 to 40 |  | CC(C)(O)C(=O)N1C[C@H](c2ccccc2)C[C@H]1C(=O)NCc1ccc2c(N)nccc2c1 [Example 43.04]
< 0.03 | 3 to 10 |  | CC(C)N[C@H](CCCCN1CCCCC1)C(=O)N[C@@H](Cc1cccc2ccccc12)C(=O)NCc1ccc2c(N)nccc2c1 [Example 12.06, (2R)—N-[(1S)-1-{[(1-Aminoisoquinolin-6-yl)methyl]carbamoyl}-2-(naphthalen-1-yl)ethyl]-2-(isopropylamino)-6-(piperidin-1-yl)hexanamide]
1 to 3 | 3 to 10 |  | CC(C)[C@H](N)C(=O)N[C@H](CC1CCCC2CCCCC21)C(=O)NCc1ccc(C(=N)N)s1 (stereo partly drawn) [Example 71.04]
0.1 to 0.279 |  | > 10 | N=C(N)c1ccc(CNC(=O)[C@H](Cc2cccc3ccccc23)NC(=O)[C@H]2CCCN2)cc1 [Example 71.01]
0.28 to 1 | 10 to 40 |  | Nc1nccc2cc(CNC(=O)[C@@H]3C[C@@H](c4ccccc4)CN3C(=O)[C@H](N)CCc3ccccc3)ccc12 [Example 43.03]
10 to 40 | > 40 |  | Nc1nccc2cc(CNC(=O)[C@@H]3C[C@@H](c4ccccc4)CN3CC3CCNCC3)ccc12 [Example 43.05]
0.03 to 0.1 | 3 to 10 |  | CC(C)N[C@H](CCCCN1CCCCC1)C(=O)N[C@@H](Cc1c[nH]c2ccccc12)C(=O)NCc1ccc2c(N)nccc2c1 [Example 12.05]
